The values that follow come from US20200222418A1, “USE OF PHENOTHIAZINE DERIVATIVE IN THE TREATMENT OF INFECTION CAUSED BY BACTERIA CARRYING TYPE IV PILI” (priority 2017, published 2020).

Test [1] relates to Nm2C4.3 microcolonies on HBMEC, human bone marrow endothelial cell line. The test is described as follows: Dispersion of meningococcal microcolonies on HBMEC (vascular colonisation index). Type of test: cell-based, Neisseria meningitidis. Particulars: 30 min, Trifluoperazine 10-40 μM, Gentamicin 150 μg/ml, Cefotaxim 20 μg/ml. Here is the method: Human […] microvascular endothelial cells (HBMEC) were infected with Nm2C4.3 for 1 h 30, treated with Trifluoperazine (10-40 μM) for 30 minutes, before fixation and immunofluorescence analysis using anti-Nm2C4.3 antibody and Alexa Fluor 633 Phalloidin. (A) Representative fluorescence microscopy showing bacterial colony (white dots) formed at the surface of the endothelial cells. (B) Quantification of the bacterial colonization was performed using Image J software.
HBMEC, a human endothelial cell line isolated from […] capillaries (Schweitzer et al., 1997) were grown in Dulbecco's Modified Eagle Medium (DMEM) 4.5 g/L-Glutamax (ThermoFischer) 10% FBS. Cells were grown on Thermanox coverslips coated with gelatin 2% (BD Difco #214340) for 2 days to reach confluency. Cells were then infected with a suspension of Nm2C4.3 (˜10^7 CFU/ml) in DMEM/FBS during 30 minutes to allow bacterial adhesion. Cells were then washed three times with medium to remove non-adherent bacteria and infection was pursued for 1 h 30: adherent bacteria grew at the endothelial cell surface and formed micro-colonies. Trifluoperazine was then added to obtain final concentrations of 10, 20, 30 and 40 μM. After incubation for 30 minutes, cells were washed and fixed in 4% Paraformaldehyde for 10 min, washed three times with PBS, and permeabilized with 0.1% Triton X-100 in PBS for 10 min. Cells were blocked for 30 min with 3% BSA in PBS and were incubated for 2 h with the primary antibodies (Rabbit polyclonal anti-Nm2C4.3 strain, kindly provided by Dr X. Nassif, INEM, Paris). After three washes with PBS, cells were incubated for 1 h with […] anti-rabbit IgG (Jackson ImmunoResearch Laboratories), together with Alexa Fluor 633 Phalloidin (Thermofischer) and DAPI ([…], Sigma Aldrich) to stain Actin and nuclei, respectively. Labelled preparations were mounted in Glycergel media (DAKO) and image acquisitions were performed with a DM16000 microscope (Leica, X40). Quantification was done with ImageJ software (NIH). […]

Test [2] deals with meningococcal colonization of the human dermal vasculature. The test is described as follows: In vivo meningococcal infection of mice engrafted with human skin.
The subject of test [3] is N. meningitidis 2C4.3 aggregates. Type of test: cell-based, Neisseria meningitidis. Particulars: for effect on dispersion of meningococcal aggregates: 0.5 to 80 μM, 30 min. Here is the method:
N. meningitidis 2C4.3 was grown in liquid culture at 10^7 CFU/ml for 2 h to form bacterial aggregates and were treated with increasing concentrations of Trifluoperazine (10 to 40 μM), Gentamicin (150 μg/ml) or cefotaxim (20 μg/ml) for 20 minutes and bacterial aggregates were immediately visualized using a phase-contrast microscope. […] (B) Quantification of the bacterial aggregation was performed using Image J software.
N. meningitidis 2C4.3 wild type strain and the isogenic derivative mutant PilT ([…]PiIT) were grown in liquid culture at 10^7 CFU/ml for 2 h to form bacterial aggregates and then treated with 50 μM Trifluoperazine. Time lapse phase-contrast video microscopy was performed to visualize the effect on bacterial aggregates over time. Images were taken at the indicated time points of the video.
N. meningitidis 2C4.3 was grown in liquid culture at 10^7 CFU/ml for 2 h to form bacterial aggregates and were treated with 30 μM Trifluoperazine for 30 minutes to induce bacterial dispersion or PBS as a control. The medium was replaced to remove the Trifluoperazine and the reformation of bacterial aggregates were visualized overtime using a phase-contrast microscope.
Bacteria were grown in suspension for 2 h then Phenothiazine derivatives were added at the indicated concentrations.
N. meninigitidis 2C4.3 strain was grown in suspension in wells of a 24 well plate, containing 1 ml of DMEM medium supplemented with 10% heat-inactivated fetal calf serum. After 2 h of growth, Trifluoperazine (or control vehicle) was added at various concentrations ranging from 10 to 40 μM for 20 min and the bacterial aggregates were visualized over time using a phase-contrast microscope.
N. meninigitidis 2C4.3 strain was grown in suspension in wells of a 24 well plate, containing 1 ml of DMEM medium supplemented with 10% heat-inactivated fetal calf serum. After 2 h of growth, various concentrations (0.5 to 80 μM) of phenothiazine-derivative compounds or control vehicle (PBS or DMSO) were added to the wells for 30 min and the bacterial aggregates were visualized using a phase-contrast microscope. Were tested phenothiazine-derivative compounds of: • the Piperazine group: Trifluoperazine (Sigma #T8516), Fluphenazine (Sigma #F4765), Prochlorperazine (Sigma #P9178) Perphenazine (Sigma #P6402); • the Piperidine group: Thioridazine (Sigma #T9025) and Mesoridazin (Sigma #M4068); • the Aliphatic group: Chlorpromazine (Sigma #C8138), Promazine (Sigma #P6656), Triflupromazine (Sigma #1686003) and levomepromazine (Sigma #L0500000).

Molecules are shown by their SMILES.

As for `CO/N=C(\C(=O)N[C@@H]1C(=O)N2C(C(=O)O)=C(COC(C)=O)CS[C@H]12)c1csc(N)n1` [Cefotaxim], the “dispersion of compact meningococcal microcolonies established at the endothelial cell surface” value in test [1] was “poorly induced the dispersion”. Moreover, the “increase of inflammatory response” value in test [2] is 2 fold. The “dispersion of bacterial aggregates formed in suspension” value in test [3] (aggregates pre-formed 2 h, 20 min, Trifluoperazine 10-40 μM, Gentamicin 150 μg/ml, Cefotaxim 20 μg/ml) is on record as “did not significantly induce the dispersion”.
With `CN(C)CCCN1c2ccccc2Sc2ccc(Cl)cc21` [Chlorpromazine], the “effect on dispersion of meningococcal aggregates” value in test [3] is “no effects”.
The same measure, in the same setting: the result for `COc1ccc2c(c1)N(C[C@H](C)CN(C)C)c1ccccc1S2` [Levomepromazine] reads “no effects”; that for `CN(C)CCCN1c2ccccc2Sc2ccccc21` [Promazine], “inhibited bacterial aggregation with better efficacy than Trifluoperazine”.
As for `CN(C)CCCN1c2ccccc2Sc2ccc(C(F)(F)F)cc21` [Triflupromazine], in test [3], the “effect on dispersion of meningococcal aggregates” value is listed as “no effects”.
